Measurements from patent US11447485B2, “Class of bifunctional compounds with quanternary ammonium salt structure” (Beijing Showby Pharmaceutical Co., Ltd., priority 2016, dated 2022).
Read-outs that look alike come from different tables or passages of the source.

How the values were obtained:
[1] = tested on: guinea pig tracheal smooth muscle (MABA); experiment: MABA activity: relaxation of CCh pre-constricted guinea pig isolated trachea; conditions: Cavia porcellus; CCh 3×10^−6 mol/L
Method: (1) The Constriction Effect of Tracheal Smooth Muscle of Guinea Pig Induced by the Example Compounds Antagonizing Carbachol (CCh)
(§1) Preparation of an isolated tracheal smooth muscle specimen of a guinea pig: same as Experiment Example 1.
Administration Method: After the trachea flake were stabilized, carbachol with a final concentration of 3×10^−6 mol/L was added, and administration was started when the pressure value of the trachea flake was increased to a stable platform. The experiments were divided into blank group and each test sample administration group. DMSO solution prepared from K—H solution and 50 μl of each test sample solution were added to each group respectively. The test sample administration group was added with 10^−9, 0.3×10^−8, 10^−8, 0.3×10^−7, 10^−7, 0.3×10^−6 and 10^−6 mol/L of test compound and control substance at cumulative concentration. The blank group was added with corresponding diluted DMSO solution. Medlab was used to record the relaxation degree of smooth muscle of the trachea flake. Finally, isoproterenol with a final concentration of 10^−5 mol/L was added as 100% relaxation.

[2] = tested on: M receptor of guinea pig tracheal smooth muscle; experiment: MA activity: guinea pig isolated trachea, propranolol blocks β receptor, CCh constriction; conditions: Cavia porcellus; propranolol 10^−5 mol/L, CCh 3×10^−6 mol/L
Method: (2) Blocking Effect of Example Compounds on M Receptor of Guinea Pig Tracheal Smooth Muscle
as §1
Administration method: After trachea flake was stabilized, propranolol hydrochloride solution with a final concentration of 10^−5 mol/L was added to block β receptor for 10 min, carbachol with a final concentration of 3×10^−6 mol/L was added (observing M receptor antagonism of compound after propranolol blocks β receptor), and administration was started when the pressure value of the trachea flake was increased to a stable platform. The experiments were divided into a blank group, a propranolol+blank group, each test sample administration group and a propranolol+each test sample administration group. DMSO solution prepared by K—H solution and 50 μl of test sample solution were added to each group of the blank group and each test sample administration group respectively. The propranolol+blank group and propranolol+each test sample administration group were added with 50 μl propranolol solution for 10 min respectively, and then added with DMSO solution prepared from K—H solution and 50 μl of test sample solution. The test sample administration group was added with the compounds to be tested with final concentrations of 10^−9, 0.3×10^−8, 10^−8, 0.3×10^−7, 10^−7, 0.3×10^−6 and 10^−6 mol/L at cumulative concentration, and the blank group was added with corresponding diluted DMSO solution. The propranolol+each test sample administration group was added with propranolol for 10 min, and then added with the compounds to be tested with final concentrations of 10^−9, 0.3×10^−8, 10^−8, 0.3×10^−7, 10^−7, 0.3×10^−6 and 10^−6 mol/L at cumulative concentration. After the propranolol+blank group was added with propranolol for 10 min, corresponding diluted DMSO solution was added. Medlab was used to record the relaxation degree of tracheal smooth muscle, finally sodium nitroprusside with a final concentration of […] was added as 100% relaxation.

[3] = tested on: β2 receptor in guinea pig tracheal smooth muscle; experiment: BA activity: guinea pig isolated trachea pre-treated with histamine; conditions: Cavia porcellus
Method: (3) The Antagonism of the Example Compounds on β2 Receptor in Guinea Pig Tracheal Smooth Muscle
as §1
Administration Method: After the trachea flake was stabilized, histamine solution with a final concentration of 3×10^−5 mol/L was added for 10 min, carbachol with a final concentration of 3×10^−6 mol/L was added (observing β receptor antagonism), and administration was started when the pressure value of the trachea flake was increased to a stable platform. The experiments were divided into a blank group, a histamine+blank group, each test sample administration group and a histamine+each test sample administration group. DMSO solution prepared by K—H solution and 50 μl of test sample solution were added to each group of the blank group and each test sample administration group respectively. The histamine+blank group and histamine+each test sample administration group were added with 50 μl histamine solution for 10 min respectively, then added with DMSO solution prepared by K—H solution and 50 μl test sample solution. The test sample administration group was added with the compounds to be tested with final concentrations of 10^−9, 0.3×10^−8, 10^−8, 0.3×10^−7, 10^−7, 0.3×10^−6 and 10^−6 mol/L at cumulative concentration, and the blank group was added with corresponding diluted DMSO solution. The histamine+each test sample administration group was added with histamine for 10 min, and then added with the test compounds with final concentrations of 10^−9, 0.3×10^−8, 10^−8, 0.3×10^−7, 10^−7, 0.3×10^−6 and 10^−6 mol/L at cumulative concentration. After the histamine+blank group was added with histamine for 10 m, corresponding diluted DMSO solution was added. Medlab was used to record the relaxation degree of smooth muscle of the trachea flake. Finally theophylline with a final concentration of 2×10^−4 mol/L was added as 100% relaxation.

[4] = tested on: heart rate of Beagle dogs; experiment: Heart rate changes after iv administration in Beagle dogs; assay type: in vivo, Beagle dog
Method: Beagle dogs were randomly divided into two groups, half male and half female, and were intravenously injected (iv) with 7.5% ethanol solution of compounds of the invention and control compound. Each compound was set up in two dosage groups of 0.01 mg/kg and 0.10 mg/kg.

[5] = Liver microsome metabolic stability in vitro (human); conditions: Human liver microsomes
Method: (§2) The area ratio of the 0 min sample was taken as 100%, and the remaining percentage of the compound after incubation at different times was obtained at each time point by comparison with the sample. With the natural logarithm of this percentage on the ordinate and time on the abscissa, a scatter plot was drawn to simulate a straight line with a negative slope of k. The parameters were calculated according to the formula.
(§3) Liver weight indicates the liver weight (g) per kilogram of body weight, and P450 indicates the amount (mg) of P450 enzyme per gram of liver.

[6] = Liver microsome metabolic stability in vitro (SD rat); conditions: SD rat liver microsomes
Method: as §2, §3

[7] = Liver microsome metabolic stability in vitro (Beagle dog); conditions: Beagle dog liver microsomes
Method: as §2, §3

[8] = Lung homogenate stability in vitro (human); assay type: in vitro ADME; conditions: 8 h, 37° C.
[9] = Lung homogenate stability in vitro (dog); assay type: in vitro ADME, Beagle dog; conditions: 8 h, 37° C.
Method: The compounds of the invention were respectively incubated with the lung homogenate of Beagle dogs for 8 hours in a water bath at 37° C., and sample was analysed by LC-MS/MS when the reaction was terminated.

[10] = tested on: tracheal smooth muscle of guinea pig; experiment: Relaxation of CCh-induced constriction of isolated guinea pig tracheal smooth muscle (Experimental Example 1); conditions: in vitro; for Onset time (min) ± SD / Time for eliminating inhibition effect (min): CCh 3 × 10^−6 mol/L
Method: The upper end was connected with a muscle tension transducer, and the specimen was given a resting tension of 1.0 g. Muscle tension changes were recorded, nutrient solution was changed every 20 min, and the experiment was started after 60 min of equilibrium.
Administration Method: After the trachea flake were stabilized, 3×10^−6 mol/L CCh was added to the bath. […] Diastolic condition of the trachea flake was observed. If no response occurred (below the threshold concentration), the next dosage was continued to be added in the order. If any response occurred, the next dosage was added until its diastolic platform was reached. The above operation was repeated until the shrink curve reached the minimum. Finally, 10^−6 mol/L isoproterenol was added to establish maximum relaxation, and the curve was recorded.
Statistical Methods: Statistics was performed using the Sigma Stat statistical software package, the data was analyzed by using the variance analysis. Student-Newman-Keuls (SNK) test was used in comparison among multiple sample averages number. The statistical test level was α=0.05 (bilateral).

Structure (SMILES): OCc1cc([C@@H](O)CNCCCCCCCCC[N+]23CCC(CC2)[C@@H](OC[C@@](O)(c2ccccc2)C2CCCC2)C3)ccc1O.[Br-] [Compound 7]
- EC50 [1]: 72.3 ± 14.6 nM
- EC50 [2]: 290 ± 12.3 nM
- EC50 ([3]; read-out: BA (EC50, nM)): 162 ± 9.8 nM
- 0.5-4 h area increase under heart rate curve (%) ([4]; 0.01 mg/kg iv): −0.5%
- 0.5-4 h area increase under heart rate curve (%) ([4]; 0.10 mg/kg iv): 0%
- liver extraction rate (ERh) [5]: 0.94
- liver extraction rate (ERh) [6]: 0.97
- liver extraction rate (ERh) [7]: 0.98
- Residual rate after incubation of human lung homogenate (%) [8]: 93%
- Residual rate after incubation of dog lung homogenate (%) [9]: 95%

Structure (SMILES): CC(Cc1ccc(OCCC[N+]23CCC(CC2)[C@@H](OC[C@@](O)(c2ccccc2)C2CCCC2)C3)cc1)NC[C@H](O)c1ccc(O)c2[nH]c(=O)ccc12.[Br-] (stereo partly shown) [Compound 80]
- EC50 [1]: 3.3 ± 0.9 nM
- EC50 [2]: 13.3 ± 1.2 nM
- EC50 ([3]; read-out: BA (EC50, nM)): 9.9 ± 1.7 nM
- 0.5-4 h area increase under heart rate curve (%) ([4]; 0.01 mg/kg iv): 4%
- 0.5-4 h area increase under heart rate curve (%) ([4]; 0.10 mg/kg iv): −5.1%
- liver extraction rate (ERh) [5]: 0.92
- liver extraction rate (ERh) [6]: 0.92
- liver extraction rate (ERh) [7]: 0.91
- Residual rate after incubation of human lung homogenate (%) [8]: 92%
- Residual rate after incubation of dog lung homogenate (%) [9]: 92%

Structure (SMILES): CC(NC[C@H](O)c1ccc(O)c(NC=O)c1)c1ccc(OCCC[N+]23CCC(CC2)[C@@H](OC[C@@](O)(c2ccccc2)C2CCCC2)C3)cc1.[Br-] (stereo partly shown) [Compound 94]
- EC50 [1]: 19.8 ± 5.4 nM
- EC50 [2]: 43.5 ± 4.2 nM
- EC50 ([3]; read-out: BA (EC50, nM)): 33.5 ± 5.7 nM
- 0.5-4 h area increase under heart rate curve (%) ([4]; 0.01 mg/kg iv): −2.8%
- 0.5-4 h area increase under heart rate curve (%) ([4]; 0.10 mg/kg iv): 4.6%
- liver extraction rate (ERh) [5]: 0.93
- liver extraction rate (ERh) [6]: 0.94
- liver extraction rate (ERh) [7]: 0.94
- Residual rate after incubation of human lung homogenate (%) [8]: 91%
- Residual rate after incubation of dog lung homogenate (%) [9]: 96%

Structure (SMILES): CC(NC[C@H](O)c1ccc(O)c(CO)c1)c1ccc(OCCC[N+]23CCC(CC2)[C@@H](OC[C@@](O)(c2ccccc2)C2CCCC2)C3)cc1 (stereo partly shown) [Compound 69]
- EC50 [1]: 7.6 ± 1.8 nM
- EC50 [2]: 27.7 ± 3.4 nM
- EC50 ([3]; read-out: BA (EC50, nM)): 18.7 ± 2.8 nM
- 0.5-4 h area increase under heart rate curve (%) ([4]; 0.01 mg/kg iv): −5.1%
- 0.5-4 h area increase under heart rate curve (%) ([4]; 0.10 mg/kg iv): −3.4%
- liver extraction rate (ERh) [5]: 0.95
- liver extraction rate (ERh) [6]: 0.96
- liver extraction rate (ERh) [7]: 0.94
- Residual rate after incubation of human lung homogenate (%) [8]: 94%
- Residual rate after incubation of dog lung homogenate (%) [9]: 90%

Structure (SMILES): OCc1cc([C@@H](O)CNCCCOc2ccc(OCCC[N+]34CCC(CC3)[C@@H](OC[C@@](O)(c3ccccc3)C3CCCC3)C4)cc2)ccc1O.[Br-] [Compound 122]
- EC50 [1]: 15.6 ± 3.6 nM
- EC50 [2]: 56.7 ± 6.6 nM
- EC50 ([3]; read-out: BA (EC50, nM)): 36.8 ± 4.1 nM
- 0.5-4 h area increase under heart rate curve (%) ([4]; 0.01 mg/kg iv): 6.6%
- 0.5-4 h area increase under heart rate curve (%) ([4]; 0.10 mg/kg iv): 0%
- liver extraction rate (ERh) [5]: 0.93
- liver extraction rate (ERh) [6]: 0.97
- liver extraction rate (ERh) [7]: 0.98
- Residual rate after incubation of human lung homogenate (%) [8]: 95%
- Residual rate after incubation of dog lung homogenate (%) [9]: 92%

Structure (SMILES): C[N+]1(C)CCC(OC(=O)Nc2cc(CCC(=O)Nc3ccc(CNC[C@H](O)c4ccc(O)c5[nH]c(=O)ccc45)cc3)ccc2-c2ccccc2)CC1.O=C([O-])C(F)(F)F [4-({[5-(2-{[4-({[(2R)-2-hydroxy-2-(8-hydroxy-2-oxo-1,2-dihydroquinolin-5-yl)ethyl]amino}methyl)phenyl]carbamoyl}ethyl)-2-phenylphenyl]carbamoyl}oxy)-1,1-dimethylpiperidin-1-onium trifluoroacetate, reference compound]
- 0.5-4 h area increase under heart rate curve (%) ([4]; 0.01 mg/kg iv): 35.2%
- 0.5-4 h area increase under heart rate curve (%) ([4]; 0.10 mg/kg iv): 109%
- liver extraction rate (ERh) [5]: 0.36
- liver extraction rate (ERh) [6]: 0.48
- liver extraction rate (ERh) [7]: 0.43

Structure (SMILES): C[N+]1(C)[C@@H]2C[C@@H](OC(=O)C(O)(c3cccs3)c3cccs3)C[C@H]1[C@@H]1O[C@@H]12 [Tiotropium Bromide, tiotropium bromide, reference compound]
- Onset time (min) ± SD [10]: slow
- Time for eliminating inhibition effect (min) [10]: long duration of action
- Onset time (min) ± SD ([10]; listed as Tiotropium bromine): 30.37 ± 0.50 min
- Time for eliminating inhibition effect (min) ([10]; listed as Tiotropium bromine): more than 300 min
- EC50 ([10]; Cavia porcellus, constriction induced by CCh 3 × 10^−6 mol/L, read-out: EC50 (μM) ± SD): 0.0142 ± 0.0022 µM
- EC50 [2]: 12.2 ± 0.8 nM

Structure (SMILES): O=c1ccc2c([C@@H](O)CNCCCCCCCCCN3CCC(Cn4cnc([C@](O)(c5ccccc5)C5CCCCC5)n4)CC3)ccc(O)c2[nH]1 [5-[(1R)-2-({9-[4-({3-[(R)-cyclohexyl(hydroxy)benzyl)-1H-1,2,4-triazol-1-yl}methyl)piperidin-1-yl]nonyl}amino)-1-hydroxyethyl]-8-hydroxyquinolin-2(1H)-one, reference compound]
- 0.5-4 h area increase under heart rate curve (%) ([4]; 0.01 mg/kg iv): 69.7%
- 0.5-4 h area increase under heart rate curve (%) ([4]; 0.10 mg/kg iv): 152%
- liver extraction rate (ERh) [5]: 0.62
- liver extraction rate (ERh) [6]: 0.42
- liver extraction rate (ERh) [7]: 0.36

Structure (SMILES): OCc1cc(C(O)CNCCCCCCOCCCCc2ccccc2)ccc1O (stereo not shown) [Salmeterol, reference compound]
- EC50 ([3]; histamine 3×10^−5 mol/L, read-out: BA (EC50)): 93.8 ± 6.8 nM
